pIC50: −log10 of the molar value. Where two headings read alike, the source gives them in different places.

Type in all cases: cell-based
Assay [1] relates to MDA-MB-231: human breast cancer cells. The assay can be described thus: Tumor cell growth inhibition (CCK-8, 72 h), MDA-MB-231. To be noted: MDA-MB-231 cells, 72 h incubation, read-out: IC50 for inhibiting the growth of tumor cells, MDA-MB-231. The method, then:
(§1) • OE33: human esophageal cancer cells; • SK-BR-3: human breast cancer cells; • NCI-N87: human gastric cancer cells; • NCI-H1975: human lung cancer cells; • MDA-MB-231: human breast cancer cells; • NCI-H226: human lung squamous cell carcinoma cells; • TE12: human esophageal cancer cells.
(§2) Tumor cells OE33, SK-BR-3, NCI-N87, NCI-H1975, MDA-MB-231, NCI-H226, and TE12 were cultured separately in RPMI1640 (Cellmax) supplemented with 10% fetal bovine serum (Cellmax). Tumor cells in the exponential growth phase were diluted to a concentration of 1×10^5 cells/mL with culture medium and added to 96-well cell culture plates at 100 μL per well, then returned and incubated overnight in a 37° C. incubator with 5% CO2. On the following day, the compounds were diluted to concentrations of 10000 nM, 2000 nM, 400 nM, 80 nM, 16 nM, 3.2 nM, 0.64 nM, and 0.13 nM with culture medium, and the diluted compounds were added to the 96-well cell culture plates at 2 μL per well, with three replicate wells for each concentration. Negative control and blank control groups without addition of compounds were added with 2 μL of the dilution liquid per well. After the addition of the compounds, the plates were returned to the 37° C. incubator with 5% CO2 to continue the incubation for 72 h. After the incubation, the cell culture plates were removed, and the culture medium in the plates was aspirated using a pipette. Then, 100 μL of culture medium containing 10% CCK-8 was added to each well, and the plates were incubated at 37° C. for 3 h. After the incubation, the plates were removed, kept in the dark, and placed in an […]. Absorbance was measured at 630 nm as the reference wavelength and 450 nm as the test wavelength. Based on the absorbance values, the IC50 values (Table 1) were calculated using the four-parameter logistic regression method in GraphPad.

Assay [2] relates to NCI-H226: human lung squamous cell carcinoma cells. Nature of the assay: Tumor cell growth inhibition (CCK-8, 72 h), NCI-H226. To be noted: 72 h incubation, read-out: IC50 for inhibiting the growth of tumor cells, NCI-H226. The method, then: as §1, §2
Assay [3] concerns NCI-H1975: human lung cancer cells. Nature of the assay: Tumor cell growth inhibition (CCK-8, 72 h), NCI-H1975. To be noted: 72 h incubation, read-out: IC50 for inhibiting the growth of tumor cells, NCI-H1975. The method, then: as §1, §2
Assay [4] has as its system NCI-N87: human gastric cancer cells. Nature of the assay: Tumor cell growth inhibition (CCK-8, 72 h), NCI-N87. As to conditions: 72 h incubation, read-out: IC50 for inhibiting the growth of tumor cells, NCI-N87. How it is done: as §1, §2
Assay [5] deals with SK-BR-3: human breast cancer cells. The assay can be described thus: Tumor cell growth inhibition (CCK-8, 72 h), SK-BR-3. To be noted: SK-BR-3 cells, 72 h incubation, read-out: IC50 for inhibiting the growth of tumor cells, SK-BR-3. How it is done: as §1, §2
The subject of assay [6] is TE12: human esophageal cancer cells. Nature of the assay: Tumor cell growth inhibition (CCK-8, 72 h), TE12. As to conditions: 72 h incubation, read-out: IC50 for inhibiting the growth of tumor cells, TE12. How it is done:
as §1, §2

The subject of assay [7] is OE33: human esophageal cancer cells. The assay can be described thus: Tumor cell growth inhibition (CCK-8, 72 h), OE33. As to conditions: 72 h incubation, read-out: IC50 for inhibiting the growth of tumor cells, OE33. The method, then:
as §1, §2

Turning to `[2H]C([2H])([2H])NOCC(=O)N[C@H]1CCc2c(C)c(F)cc3nc4c(c1c23)Cn1c-4cc2c(c1=O)COC(=O)[C@]2(O)CC` [Compound D1, N-(2′-O—(N-trideuteriomethylamino)oxyacetyl)exatecan], the pIC50 was 6.74 in assay [1] (Homo sapiens); 7.64 in assay [2] (Homo sapiens); 7.19 in assay [3] (Homo sapiens); 8.61 in assay [4] (Homo sapiens); 8.59 in assay [5] (Homo sapiens); 7.44 in assay [6] (Homo sapiens). In addition, the pIC50 in assay [7] (Homo sapiens) was 8.36.

`CC[C@@]1(O)C(=O)OCc2c1cc1n(c2=O)Cc2c-1nc1cc(F)c(C)c3c1c2[C@@H](NC(=O)C1(ONC)CCC1)CC3` [Compound D2, N-(1′-O—(N-methylamino)oxycyclobutane-1′-carbonyl)exatecan]: the pIC50 was 6.63 in assay [1] (Homo sapiens); 8.20 in assay [2] (Homo sapiens); 7.57 in assay [3] (Homo sapiens); 8.95 in assay [4] (Homo sapiens); 8.58 in assay [5] (Homo sapiens); 7.87 in assay [6] (Homo sapiens). Further, the pIC50 in assay [7] (Homo sapiens) is 8.71.

As for `CC[C@@]1(O)C(=O)OCc2c1cc1n(c2=O)Cc2c-1nc1cc(F)c(C)c3c1c2[C@@H](NC(=O)[C@H](C)ONC)CC3` [Compound D3, N-(2′-methyl-2′-O—(N-methylamino)oxyacetyl)exatecan], the pIC50 was 6.63 in assay [1] (Homo sapiens); 8.12 in assay [2] (Homo sapiens); 7.43 in assay [3] (Homo sapiens); 8.77 in assay [4] (Homo sapiens); 8.32 in assay [5] (Homo sapiens); 7.73 in assay [6] (Homo sapiens). Further, the pIC50 in assay [7] (Homo sapiens) was 8.42.

Consider `[2H]C([2H])([2H])NOC([2H])([2H])C(=O)N[C@H]1CCc2c(C)c(F)cc3nc4c(c1c23)Cn1c-4cc2c(c1=O)COC(=O)[C@]2(O)CC` [Compound D4, N-(2′,2′-dideuterio-2′-O—(N-trideuteriomethylamino)oxyacetyl)exatecan], for which the pIC50 was 6.37 in assay [1] (Homo sapiens); 7.68 in assay [2] (Homo sapiens); 7.19 in assay [3] (Homo sapiens); 8.43 in assay [4] (Homo sapiens); 8.35 in assay [5] (Homo sapiens); 7.48 in assay [6] (Homo sapiens). Moreover, the pIC50 in assay [7] (Homo sapiens) is 8.25.

For the molecule `CC[C@@]1(O)C(=O)OCc2c1cc1n(c2=O)Cc2c-1nc1cc(F)c(C)c3c1c2[C@@H](NC(=O)C1CNOC1)CC3` (stereo partly drawn) [Compound D5, N-(isoxazolidine-4′-carbonyl)exatecan], the pIC50 in assay [1] (Homo sapiens) was 6.45; in assay [2] (Homo sapiens), 7.30; in assay [3] (Homo sapiens) it was 7.01; in assay [4] (Homo sapiens) it was 8.16; in assay [5] (Homo sapiens), 7.81; in assay [6] (Homo sapiens), 7.02. Besides, the negative logarithm of the IC50 (pIC50) in assay [7] (Homo sapiens) was 7.65.

Turning to `CC[C@@]1(O)C(=O)OCc2c1cc1n(c2=O)Cc2c-1nc1cc(F)c(C)c3c1c2[C@@H](NC(=O)CO)CC3` [Dxd, reference compound], the pIC50 in assay [1] was 6.50; in assay [2] it was 7.12; in assay [3] it was 7.59; in assay [4] it was 8.61; in assay [5], 8.01; in assay [6] it was 7.67. Besides, in assay [7], the pIC50 was 8.15.

Broadly, the pIC50 is the negative decadic logarithm of the IC50, by convention in mol/L.
